Test results reported in patent US7897789B2, “Vitamin D receptor modulators” (Eli Lilly and Company, priority 2003, dated 2011).
Values joined by “and” are separate entries in the source; they are usually repeats but may differ in a detail not shown here. Equal entries are not always repeated. Where two headings read alike, the source gives them in different places.

Legend:
KERtr cells = assay: Keratinocyte proliferation assay; format: cell-based; details: Homo sapiens
Experimental: 5. The Keratinocyte Proliferation Assay
This Assay is indicative for the treatment of psoriasis.
(5) The Keratinocyte Proliferation Assay:
KERtr cells (Human skin keratinocyte transformed with a retrovirus vector, obtained from ATCC) were plated in 96-well flat-bottomed plates (3000 cells/well) in 100 μl keratinocyte serum free medium supplemented with bovine pituitary extract in the absence of EGF (Life Technologies, Rockville, Md.) and incubated at 37° C. for two days. The cells were treated with various concentrations of VDR ligands (ten-fold serial dilution from 10,000 nM to 0.1 nM in triplicate), dissolved in 100 μl keratinocyte serum free medium supplemented with bovine pituitary extract in the absence of EGF and incubated at 37° C. for 72 hr. […] Potency values (IC50) values were determined as the concentration (nM) of compound that elicited a half-maximal response.

VDR = target: T1, VDR (Homo sapiens, UniProt P11473); assay: Caco-2 cell co-transfection assay (VDR CTF); format: cell-based; details: Caco-2 cells, pGal4-VDR-LBD luciferase co-transfection; Table 1
T1 construct: the receptor expression vector pGal4-VDR-LBD (10 ng); expressed in transfected cells; host or cells: Caco-2 cells
T1 sequence (P11473 127-423 limits assumed): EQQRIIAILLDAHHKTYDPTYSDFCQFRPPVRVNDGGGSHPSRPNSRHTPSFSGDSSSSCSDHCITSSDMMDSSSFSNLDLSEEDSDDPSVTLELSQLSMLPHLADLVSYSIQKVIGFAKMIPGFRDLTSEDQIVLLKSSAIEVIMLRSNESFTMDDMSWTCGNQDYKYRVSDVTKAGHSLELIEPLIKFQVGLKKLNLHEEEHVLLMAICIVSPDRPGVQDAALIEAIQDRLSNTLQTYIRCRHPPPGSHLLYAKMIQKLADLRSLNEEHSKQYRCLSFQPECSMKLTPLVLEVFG
Experimental: 2. The Caco-2 Cell Co-Transfection Assay:
The Caco-2 cell assay is an indicator for the undesirable condition of hypercalcemia. This co-transfection assay is a surrogate assay for in vivo calcemic activity of VDR ligands. […] Preferred assay results are greater than 1000 nM.
(2) Materials and Method for The Caco-2 Cell Assay:
Caco-2 cells, grown in phenol red free, DMEM (Invitrogen, Carlsbad, Calif.) containing 10% charcoal-stripped FCS (Hyclone, Logan, Utah), were transfected with Fugene 6 reagent (Roche Diagnostics, Indianapolis, Ind.). Cells (5000/well) were plated 18 h before transfection in a 96 well plate. The Cells were transfected with Gal4-responsive reporter pFRLuc (150 ng, Stratagene, La Jolla Calif.) and the receptor expression vector pGal4-VDR-LBD (10 ng), along with Fugene 6 reagent (0.2 μl/well). The DNA-Fugene complex was formed by incubating the mixture for 30 min at room temperature. The cells were transfected in triplicate for 5 h, and treated with various concentrations of VDR ligands (form 0.01 nM to 10,000 nM concentration range) 18 h post-transfection. The luciferase activity was quantified using Steady-Glo reagent kit (Promega, Madison, Wis.) as per manufacturer's specifications.

IL-10 = assay: Human IL-10 induction assay in PBMCs; format: cell-based; details: PBMC
Source text: 6. The IL-10 Induction Assay
This is an in vitro efficacy assay for psoriasis, abscess and adhesion. Psoriasis involves both keratinocytes and immune cells. IL-10 is a unique cytokine because it is anti-inflammatory and immunosuppressive. This assay tells us whether a VDRM is able to function as an agonist in PBMCs ([…]) or not.
(6) Materials and Method for Human IL-10 Induction Assay:
Isolation of Peripheral Blood Mononuclear Cells (PBMCs):
Stimulation of PBMC: • L. Prepare TPA in DMSO. • M. Dissolve PHA in water. • N. Plate TPA/PHA treated PBMCs in well plates. • O. Incubate.
Sample Collection and Assay: • S. Remove all the cells by centrifugation and assay the supernatant for IL-10 by immunoassay. • T. Perform IL-10 assay using anti-human IL-10 antibody coated beads, as described by the manufacturer (Linco Research Inc., St. Charles, Mo.). (8) CaT1 Assay

RXR-VDR heterodimer = target: T2, RXR-VDR heterodimer (Homo sapiens, UniProt P11473); assay: RXR-VDR heterodimerization assay (SaOS-2 cells); format: cell-based; details: Gal4-RXR / VP16-VDR-LBD luciferase reporter, Table 1
T2 construct: Add the Gal4-RXR-DEF and VP16-VDR-LBD; expressed in transfected cells; host or cells: SaOS-2 cells
T2 sequence (P11473 127-423 limits assumed): T1 sequence (P11473 127-423 limits assumed)
T2 sequence (P19793 201-462 partner limits assumed): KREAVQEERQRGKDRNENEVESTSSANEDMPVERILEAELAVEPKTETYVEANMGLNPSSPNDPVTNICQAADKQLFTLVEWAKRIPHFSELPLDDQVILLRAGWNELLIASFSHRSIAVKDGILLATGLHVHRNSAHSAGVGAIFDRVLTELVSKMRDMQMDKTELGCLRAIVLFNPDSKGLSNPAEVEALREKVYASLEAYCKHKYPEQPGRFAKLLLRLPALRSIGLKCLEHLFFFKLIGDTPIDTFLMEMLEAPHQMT
Experimental: 1. The RXR-VDR HeterodimerAssay:
This assay provides the VDR activity of a test compound.
(1) Materials and Method for RXR-VDR Heterodimerization Assay:
Luciferase Assay Reagent: • Use Steady-Glo Luciferase Reagent from Promega (Cat #E2550) Consists of: a. E2533 Assay Substrate, lyopholized product and b. E2543 Assay Buffer. • Thaw at room temperature • Store Cell Harvesting Aspirate media from culture flask, rinse cells with HBSS and aspirate. Add trypsin and incubate. When cells appear detached, resuspend cells in growth media. Transfer into a new flask with fresh growth media for passaging the cells. Plate well plates and two extra plates A. Cell Count Mix the cell suspension using pipette Use Hematocytometer to count the cells Load cell suspension onto the hemocytometer chamber Count cells. […] In sterile flask add cell suspension to plating media. Mix. Add cells/well. Place the cells in the incubator. Cells should be about 75% confluent prior to transfection. DAY 2: Transfection Step 1: DNA and Media Add plain DMEM media to tubes for mixing the DNA Add the Reporter gene pFR-LUC Add the Gal4-RXR-DEF and VP16-VDR-LBD Step 2: FuGENE and Media Prepare plain DMEM media in a ubes for mixing FuGENE Add FuGENE 6 Transfection Reagent Incubate Step 3: FuGENE, DNA and Media Complex Add FuGENE Media complex from step 2 to DNA Media complex from step 1 Incubate Step 4: FuGENE, DNA and Media Complex to-well plate Add FuGENE-DNA-Media complex from step 3 to each plate Incubate. […] Day 4: Luciferase Assay Read the plates after drug treatment Remove part of media from all the wells and leave remainder Add Steady-Glo Luciferase Reagent mixture/wells Incubate Count each well using a Luminescence counter, Top Count NXT by Packard
Set a delay between plates to reduce the background.

rat osteocalcin promoter = assay: OCN (osteocalcin) promoter assay; format: cell-based; details: RG-15 (ROS 17/2.8) cells, 48 hr treatment, Table 1
Experimental: 3. The OCN (Osteocalcin) Promoter Assay
The OCN Promoter Assay is an indicator and marker for osteoporosis. […] Preferred assay results are less than 50 nM.
(3) Materials and Method for the OCN Promoter Assay:
The activation of osteocalcin by VDR ligands was evaluated in a rat osteoblast-like cell line RG-15 (ROS 17/2.8) stably expressing rat osteocalcin promoter fused with luciferase reporter gene. […] Confluent RG-15 cells maintained in DMEM/F-12 medium (3:1) containing 5% FBS, 300 μg/ml G418 and at 37° C. under 5% CO2/95% air atmosphere were trypsinized (0.25% trypsin) and plated into white opaque 96-well cell culture plates (25000 cells/well). After 24 hr, cells (in DMEM/F-12 medium+2% FBS) were treated with various concentrations of compounds, dissolved in DMSO. The final DMSO concentration remained at 0.01% (v/v). After 48 hr treatment, the medium was removed, cells were lysed with 50 μl of lysis buffer (From Luciferase reporter assay system, Roche Diagnostics, Indianapolis, Ind.) and assayed for luciferase activity using the Luciferase Reporter Gene Assay kit from Boehringer Mannheim as per manufacturer's specifications.

DBF mice = assay: Mouse hypercalcemia assay; details: oral gavage for 6 days, serum ionized calcium 6 hours after last dosing; Table 1
Source text: The Mouse Hypercalcemia Assay
The Mouse Hypercalcemia Assay is a six day hypercalcemia test for toxicity and selectivity.
(4) Materials and Method for the Mouse Hypercalcemia Assay:
Weanling, virus-antibody-free, five to six weeks old female DBF mice (Harlan, Indianapolis, Ind.) are used for all the studies. Animals are allowed to acclimate to local vivarium conditions for 2 days. […] The animals then are divided into groups with 4-5 mice per group. Different doses of test compounds prepared in 10% Ethanol and 90% sesame oil are administered to mice orally via gavage for 6 days. 1α-25(OH)2D3 0.5 μg/kg/d was also given to one group of mice as the positive control. […] Raw data of group differences is assessed by analysis of variance (ANOVA) using Fisher's protected least significant difference (PLSD) where the significance level was P<0.05.

[1] = 72 h, BrdU incorporation, Table 2, read-out: Kera. Prolif. IC50
[2] = TPA/PHA treated human PBMCs, Table 2

| IC50 (IL-10; human PBMCs, comparison compounds, Table 4) [nM] | SMILES | IC50 (KERtr cells; [1]) [nM] | EC50 (VDR) [nM] | IC50 (IL-10; [2]) [nM] | EC50 (RXR-VDR heterodimer) | EC50 (rat osteocalcin promoter; Rattus norvegicus, 48 h) [nM] | Mouse Hypercal (DBF mice) [µg/kg/day] | EC50 (rat osteocalcin promoter) [nM] | IC50 (KERtr cells; comparison compounds, Table 4, read-out: Kera. Prolif. IC50) [nM] |
| --- | --- | --- | --- | --- | --- | --- | --- | --- | --- |
|  | CCC(CC)(c1ccc(OCC(O)C(C)(C)C)c(C)c1)c1ccc2cc(C(=O)NCC(=O)O)sc2c1 (stereo not shown) [Ex. 6, [(6-{1-ethyl-1-[4-(2-hydroxy-3,3-dimethyl-butoxy)-3-methyl-phenyl]-propyl}-benzo[b]thiophene-2-carbonyl)-amino]-acetic acid] | 4 | 331 | 4 |  |  |  |  |  |
|  | CCC(CC)(c1ccc(OCC(O)C(C)(C)C)c(C)c1)c1cc2ccc(C(=O)O)cc2s1 (stereo not shown) [Ex. 8, 2-{1-Ethyl-1-[4-(2-hydroxy-3,3-dimethyl-butoxy)-3-methyl-phenyl]-propyl}-benzo[b]thiophene-6-carboxylic acid] | 1 | 409 | 15 |  |  |  |  |  |
|  | CCC(CC)(c1ccc(OCC(O)C(C)(C)C)c(C)c1)c1ccc2cc(C(=O)O)sc2c1 (stereo not shown) [Ex. 2, 6-{1-ethyl-1-[4-(2-hydroxy-3,3-dimethyl-butoxy)-3-methyl-phenyl]-propyl}-benzo[b]thiophene-2-carboxylic acid] | 1 | 411 | 24 | 30 nM | 1 |  |  |  |
|  | CCC(CC)(c1ccc(OCC(=O)C(C)(C)C)c(C)c1)c1cc2cc(C(=O)N(C)C)ccc2s1 [Ex 21, 2-{1-[4-(3,3-Dimethyl-2-oxo-butoxy)-3-methyl-phenyl]-1-ethyl-propyl}-benzo[b]thiophene-5-carboxylic acid dimethylamide] | 162 | 708 |  | 134 nM and 24 nM | 29 | >1000 | 48 |  |
| 0.5 | C=C1/C(=C\C=C2/CCC[C@]3(C)[C@@H]([C@H](C)/C=C/[C@@H](O)C4CC4)CC[C@@H]23)C[C@@H](O)C[C@@H]1O [FF, calcipotriol, reference compound] |  |  |  |  |  |  |  | 103 |
|  | CCC(CC)(c1ccc(OCC(=O)C(C)(C)C)c(C)c1)c1ccc2cc(C(=O)O)sc2c1 [Ex. 1, 6-{1-[4-(3,3-dimethyl-2-oxo-butoxy)-3-methyl-phenyl]-1-ethyl-propyl}-benzo[b]thiophene-2-carboxylic acid] |  | 432 | 109 |  | 2 | <300 | 1 |  |
|  | CCC(CC)(c1ccc(OCC(O)C(C)(C)C)c(C)c1)c1cc2cc(C(=O)NCC(=O)O)ccc2s1 (stereo not shown) [Ex 20, [(2-{1-Ethyl-1-[4-(2-hydroxy-3,3-dimethyl-butoxy)-3-methyl-phenyl]-propyl}-benzo[b]thiophene-5-carbonyl)-amino]-acetic acid] | 98 | 314 | 386 | 24 nM | 5 |  |  |  |
|  | CCC(CC)(c1ccc(OCC(=O)C(C)(C)C)c(C)c1)c1ccc2cc(C(=O)NCC(=O)O)sc2c1 [Ex. 5, [(6-{1-[4-(3,3-dimethyl-2-oxo-butoxy)-3-methyl-phenyl]-1-ethyl-propyl}-benzo[b]thiophene-2-carbonyl)-amino]-acetic acid] | 4 | 342 | 6 |  | 1 | >300 |  |  |
|  | CCC(CC)(c1ccc(OCC(=O)C(C)(C)C)c(C)c1)c1cc2cc(C(=O)O)ccc2s1 [Ex 17, 2-{1-[4-(3,3-dimethyl-2-oxo-butoxy)-3-methyl-phenyl]-1-ethyl-propyl}-benzo[b]thiophene-5-carboxylic acid] | 404 | 631 |  | 272 nM and 51 nM | 4 | >300 | 3 |  |
|  | CCC(CC)(c1ccc(OCC(O)C(C)(C)C)c(C)c1)c1cc2cc(C(=O)O)ccc2s1 (stereo not shown) [Ex 18, 2-{1-ethyl-1-[4-(2-hydroxy-3,3-dimethyl-butoxy)-3-methyl-phenyl]-propyl}-benzo[b]thiophene-5-carboxylic acid] | 1.8 | 748 | 89 |  | 2.4 |  | 1.3 |  |
|  | CCC(CC)(c1ccc(OCC(=O)C(C)(C)C)c(C)c1)c1ccc2cc(C(=O)N(C)C)sc2c1 [Ex. 3, 6-{1-[4-(3,3-Dimethyl-2-oxo-butoxy)-3-methyl-phenyl]-1-ethyl-propyl}-benzo[b]thiophene-2-carboxylic acid dimethylamide] | > 1000 | 869 | 351 | 442 nM and 67 nM |  |  |  |  |
